The values that follow come from patent publication US20070219213A1, “Use of Adrenergic N-Phenylpiperazine Antagonists, Pahrmaceutical Compositions Containning Them, and Methods of Preparing Them” (priority 2004, published 2007).

Broadly, the pKB is the KB on a negative log10 scale, so that one unit is a factor of ten. Broadly, the IC50 is the concentration that gives 50% inhibition.

Experiment [1] deals with alpha 1A adrenoceptor (human prostatic membranes). The conditions noted are these: similar models; literature (Motiyama et al.); cited from earlier work.
The test system of experiment [2] is phenylephrine vasopressor effects. The experiment can be described thus: Inhibition of phenylephrine vasopressor effects in anesthetized rabbits. In kind it is in vivo. The conditions noted are these: rabbit, n=5. On the procedure: Animal and Homodynamic Measurements:
The experiments were performed with male rabbits weighing 3 kg, from the CECAL (Centro de Criação de Animais de Laboratório) at Fundação Oswaldo Cruz. The animals were anesthetized with sodium pentobarbital (40 mg/kg) in the ear marginal vein, and anesthesia maintenance was obtained with supplemental intravenous (i.v.) doses of 5 mg/kg as necessary. The […] were tracheomized, inserted with a polyethylene canule, and immobilized with pancuronium bromide (1 mg/kg, i.v.), with supplemental doses of 0.2 mg/kg for each hour of experiment and artificially ventilated with a mechanical fan (Rodent ventilator 7025, Ugo Basile) with a volume of 10 ml/kg and frequency from 40 to 50 incursions/min. The right femoral vein was catheterized for drug administration.
The arterial pressure was monitored through abdominal aorta catheter via the right femoral artery and connected to a quartz transductor Hewlett Packard (1290 A), which was connected to an arterial pressure processor and recorder Hewlett Packard (system 7754 with amplifier 8805 B).
The systolic (SAP) and diastolic (DAP) arterial pressures were obtained directly from the records and the average arterial pressure (AAP) was calculated by DAP's Sum with a third of the differential pressure [[…]]. The cardiac frequency was determined by counting the pressure waves, visualized with the speed increase of the recorder paper.
The cardiac debit (DC) was monitored using an electromagnetic probe, connected to a Skalar flowmeter model MDL 1401. After left thoraxatomy, between the second and third ribs, was made an incision in the pericardium and the heart was exposed to enable the visualization and dissection of the ascending aorta for installation of the electromagnetic probe. The systemic vascular resistance (SVR) was calculated as a quotient of the average arterial pressure by the cardiac debit, multiplied by a conversion factor 80 (SVR=AAP/DC×80) and expressed in dyn/seg/cm-5.
At the conclusion of the anesthetic-surgical procedures, a 15-minute period was allowed for stabilization of the homodynamic parameters. Before any pharmacological manipulation the average arterial pressure, cardiac frequency and cardiac debit measurements were obtained. These values were considered basal homodynamic values.
Dose-Response Curve of the Phenylephrine Vasopressor Effect:
After surgical procedures and stabilization of the homodynamic parameters, a dose-response curve of the phenylephrine pressure effects was performed ([…], i.v.), that were named control curves. […]
The results were expressed as average±standard deviation (E.P.M.) The administration effects of LASSBio 772 with regard to the basal values were analyzed through variance analysis (ANOVA) for repeated measurements. […]

The target in experiment [3] is T1, alpha 1D adrenoceptor (rat aorta) (Rattus norvegicus, UniProt P23944).
T1 construct: from tissue; host or cells: rat aorta segments with endothelium
T1 sequence (P23944 1-561): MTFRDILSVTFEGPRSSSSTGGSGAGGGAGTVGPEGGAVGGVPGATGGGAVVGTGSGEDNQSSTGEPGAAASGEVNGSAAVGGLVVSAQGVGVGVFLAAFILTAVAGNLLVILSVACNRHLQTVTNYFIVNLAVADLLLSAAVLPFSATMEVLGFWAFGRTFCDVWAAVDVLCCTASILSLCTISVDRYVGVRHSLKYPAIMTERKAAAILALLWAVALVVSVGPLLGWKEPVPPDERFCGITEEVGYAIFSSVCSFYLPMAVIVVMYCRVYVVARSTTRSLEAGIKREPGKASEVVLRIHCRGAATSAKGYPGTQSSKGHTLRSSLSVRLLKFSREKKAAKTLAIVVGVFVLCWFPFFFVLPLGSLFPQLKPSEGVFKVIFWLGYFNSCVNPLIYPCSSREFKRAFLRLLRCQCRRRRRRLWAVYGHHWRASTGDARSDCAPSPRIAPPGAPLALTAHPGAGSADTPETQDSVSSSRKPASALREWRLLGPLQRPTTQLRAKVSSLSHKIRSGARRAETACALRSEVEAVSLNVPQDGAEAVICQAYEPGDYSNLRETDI
The experiment can be described thus: Vasoconstriction assay in rat aorta induced by norepinephrine. Type of experiment: cell-based. The note with it: pKB, rat aorta, α1D. The procedure: Vasoconstriction Assay in Mouse Aorta Induced By Norepinephrine
Aorta segments with endothelium (3 mm), withdrawn from young male rats (250-300 g), were placed in containers containing physiologic solution (NaCl 122 mM, KCl 5 mM, NaHCO3 15 mM, glucose 11.5 mM, MgCl2 1.2 mM, CaCl2 1.25 mM and KH2PO4 1.2 mM), kept at 37° C. under aeration with a mixture of 95% of O2 and 5% of CO2, and submitted to a pre-charge of 5 mN for 60 minutes. During this period, eventual tension adjustments were performed until the stabilization in 0.5 g, always with renewal with physiologic solution. Then, vasoconstriction was induced by 60 mM KCl solution, in each ring, to verify the viability of the organ on the day of experiment. The preparation was submitted to the contraction with norepinephrine (5×10^−5 M) and, then the rings were washed to reach the basal line (0% of vasoconstriction). The procedure was repeated until the obtainment of a constant curve. Later, a curve, using increasing concentrations of norepinephrine (3×10^−8-5×10^−5 M), was performed for each ring, as a positive control. The segments were washed to reach the basal line (0% of vasoconstriction) and incubated with the test compounds, individually, for 30 minutes. A second norepinephrine curve was performed and obtained data compared to the first control curve. […] The aorta rings were used once for each compound.
Determination of the LASSBio 772 Antagonist Potency (pKB) on the Vasoconstriction of Rabbit or Rat Thoracic Aorta.

The target of experiment [4] is T2, α1A (Oryctolagus cuniculus, UniProt O02824).
T2 construct: from tissue
T2 sequence (O02824 1-466): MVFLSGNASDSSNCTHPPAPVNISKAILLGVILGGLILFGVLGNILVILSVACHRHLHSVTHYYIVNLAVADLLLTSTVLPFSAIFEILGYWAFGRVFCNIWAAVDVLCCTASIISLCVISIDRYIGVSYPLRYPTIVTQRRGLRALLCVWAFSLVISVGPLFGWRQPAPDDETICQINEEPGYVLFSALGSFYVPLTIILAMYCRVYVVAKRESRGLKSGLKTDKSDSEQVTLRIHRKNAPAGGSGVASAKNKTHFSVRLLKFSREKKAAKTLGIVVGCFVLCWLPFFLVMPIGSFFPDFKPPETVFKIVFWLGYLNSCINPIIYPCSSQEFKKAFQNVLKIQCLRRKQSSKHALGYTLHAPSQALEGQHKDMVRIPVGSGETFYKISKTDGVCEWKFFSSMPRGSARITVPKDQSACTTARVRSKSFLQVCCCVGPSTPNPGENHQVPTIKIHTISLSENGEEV
Nature of the experiment: Binding study in rabbit liver. The conditions noted are these: rabbit liver, α1A; read-out: IC50.

Experiment [5] has as its target T3, alpha 1B subtype (Rattus norvegicus, UniProt P15823).
T3 construct: from tissue; host or cells: rat liver homogenate/membranes
T3 sequence (P15823 1-515): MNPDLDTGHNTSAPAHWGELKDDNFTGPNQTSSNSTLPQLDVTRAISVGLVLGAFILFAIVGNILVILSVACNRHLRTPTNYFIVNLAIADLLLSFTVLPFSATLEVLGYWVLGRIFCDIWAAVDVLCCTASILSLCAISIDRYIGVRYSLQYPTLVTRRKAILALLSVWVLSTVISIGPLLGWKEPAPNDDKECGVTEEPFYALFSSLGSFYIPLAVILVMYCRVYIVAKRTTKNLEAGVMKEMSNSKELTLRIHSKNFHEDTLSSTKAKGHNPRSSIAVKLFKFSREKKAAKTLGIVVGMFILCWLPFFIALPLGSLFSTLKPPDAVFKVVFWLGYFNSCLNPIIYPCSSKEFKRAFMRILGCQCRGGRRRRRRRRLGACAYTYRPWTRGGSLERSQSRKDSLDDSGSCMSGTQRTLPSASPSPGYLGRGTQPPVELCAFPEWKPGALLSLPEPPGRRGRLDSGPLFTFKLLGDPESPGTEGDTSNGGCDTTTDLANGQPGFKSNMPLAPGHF
Nature of the experiment: [3H]prazosin binding assay in rat liver. The note with it: rat liver, α1B; read-out: IC50.

Experiment [6] deals with T4, alpha 1A subtype (Rattus norvegicus, UniProt P43140).
T4 sequence (P43140 1-466): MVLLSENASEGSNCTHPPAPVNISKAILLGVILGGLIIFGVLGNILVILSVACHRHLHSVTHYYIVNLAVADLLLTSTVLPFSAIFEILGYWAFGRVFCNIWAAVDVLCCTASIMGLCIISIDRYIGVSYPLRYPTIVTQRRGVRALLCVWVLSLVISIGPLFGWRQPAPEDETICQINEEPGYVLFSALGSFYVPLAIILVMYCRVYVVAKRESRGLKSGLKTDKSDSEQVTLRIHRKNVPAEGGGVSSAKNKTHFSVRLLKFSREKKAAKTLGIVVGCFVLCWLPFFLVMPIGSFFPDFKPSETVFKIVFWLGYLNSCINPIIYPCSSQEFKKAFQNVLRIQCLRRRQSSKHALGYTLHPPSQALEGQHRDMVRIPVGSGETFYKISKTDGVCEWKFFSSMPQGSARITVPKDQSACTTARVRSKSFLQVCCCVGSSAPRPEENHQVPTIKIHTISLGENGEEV
The arrangement: from tissue; host or cells: rat salivary gland homogenate/membranes. The conditions noted are these: 0.06 nM [3H]prazosin (Michel et al.), read-out: IC50 of reference; cited from earlier work.

In experiment [7] the test system is alpha 1A and alpha 1B adrenoceptors (rabbit aorta, α1A > α1B). The conditions noted are these: literature (Yamagishi et al.); cited from earlier work.

Take `C[C@H](Cc1cc2c(c(C(N)=O)c1)N(CCCO)CC2)NCCOc1ccccc1OCC(F)(F)F` [KMD-3213]: in experiment [1], the Kb is 0.35 nM and the pKB was 9.45.
For `COc1ccccc1N1CCN(CCc2ccccc2)CC1` [LASSBio 772B, 4-Phenethyl-1-(2-methoxy-phenyl)-piperazine], in experiment [2] (phenylephrine 100 μg/kg i.v.), the “AAP increase induced by phenylephrine in the presence of compound” value is listed as 9±4% and the “SVR increase induced by phenylephrine in the presence of compound” value was 15±5%. Further, the “decrease of DC induced by phenylephrine in the presence of compound” value in experiment [2] (phenylephrine i.v.) turned out to be 7±2%. This compound gave a Kb in experiment [3] of 0.02 nM. The IC50 in experiment [4] was 23.9 nM. Also, the IC50 in experiment [5] amounted to 130 nM.
On to `CCOc1ccccc1OCCN[C@H](C)Cc1ccc(OC)c(S(N)(=O)=O)c1` [tamsulosin], for which, in experiment [1], the Kb was 0.2 nM and the pKB is 9.68.
`COc1cccc(OC)c1OCCNCC1COc2ccccc2O1` (stereo not drawn) [WB 4101]: the IC50 in experiment [6] was 0.6 nM.
Regarding `COc1cc2nc(N3CCN(C(=O)c4ccco4)CC3)nc(N)c2cc1OC` [Prazosin, prazosin], in experiment [7], the Kb is 1.02 nM and the pKB is given as 9.05. In experiment [1], the Kb was 1.45 nM and the negative-log KB (pKB) was 8.84.
